Converted amounts (≈) assume the structure as drawn.
Assays:
Type in all cases: functional
[1] = system: Staphylococcus aureus; test: Antimicrobial activity against compound treated Staphylococcus aureus harboring mgrA C12S mutant gene retro-orbitally infected into mouse assessed as reduction in bacterial CFU in kidney at 10 ug/ml relative to control
[2] = system: Staphylococcus aureus; test: Antimicrobial activity against compound treated Staphylococcus aureus harboring mgrA C12S mutant gene retro-orbitally infected into mouse assessed as reduction in bacterial CFU in liver at 10 ug/ml relative to control
[3] = system: Staphylococcus aureus; test: Antimicrobial activity against Staphylococcus aureus
[4] = system: Staphylococcus aureus; test: Antimicrobial activity against Staphylococcus aureus expressing mgrA C12S mutant gene

Row | SMILES | fold change (FC) [1] | fold change (FC) [2] | MIC [3] [µg/mL] | MIC [4] [µg/mL]
1 | CC[C@H]1OC(=O)[C@H](C)[C@@H](O[C@H]2C[C@@](C)(OC)[C@@H](O)[C@H](C)O2)[C@H](C)[C@@H](O[C@@H]2O[C@H](C)C[C@H](N(C)C)[C@H]2O)[C@](C)(O)C[C@@H](C)C(=O)[C@H](C)[C@@H](O)[C@]1(C)O [ERYTHROMYCIN] | 10000 | 100 |  | 
2 | CCn1cc(C(=O)O)c(=O)c2cc(F)c(N3CCNCC3)cc21 [NORFLOXACIN] |  |  | 0.7 (≈ 2.19 µM) | 1.4 (≈ 4.38 µM)

Source: ChEMBL document CHEMBL1240316, “An oxidation-sensing mechanism is used by the global regulator MgrA in Staphylococcus aureus” (2006)
